Source: patent US10759810B2 (AO “TATKHIMFARMPREPARATY”, priority 2016, dated 2020)
Values after ≈ are worked out from the molar mass of the structure shown.

What was measured:
Test in all cases: MIC, serial dilutions in Mueller-Hinton broth
Assay type in all cases: cell-based
[1] = test system: Staphylococcus epidermidis (clinical isolate); details: inoculum 10^7 CFU/ml, gram-positive; for MIC: Staphylococcus epidermidis, read-out: MIC, S. epidermidis
Experimental: (§1) Measurement of antibacterial activity was carried out on the strains of Staphylococcus aureus ATCC 29213 (museum strain), Staphylococcus epidermidis (clinical isolate), Micrococcus luteus (clinical isolate), Bacillus subtilis 168 (museum strain), Escherichia coli ATCC 25922 (museum strain), Salmonella typhimurium TA100 (museum strain), Pseudomonas aeruginosa ATCC 27853 (museum strain). A comparative assessment of the spectrum of antibacterial action on reference strains and clinical isolates of gram-positive microorganisms was carried out using a micromethod for determining the minimum inhibitory concentration (MIC) using serial dilutions in Mueller-Hinton broth using 96-well sterile plates.
(§2) The first lowest concentration of the antibiotic (from a series of successive dilutions), where bacterial growth is not visually determined, is considered to be the minimum inhibitory concentration (MIC).
(§3) For the preparation of inoculum (infectious material used for artificial contamination), intended for the study of antibacterial activity, was used a pure daily culture of bacteria grown on a dense nutrient medium (agar LB medium). In a sterile isotonic solution of sodium chloride, a suspension of microorganisms was prepared, adjusting the inoculum density to 0.5 according to the McFarland standard (1.5·10^8 CFU/ml). Then, the resulting inoculum was diluted to a concentration of 10^7 CFU/ml with LB-broth. The inoculum was used for 15 minutes after preparation; the purity of the bacterial strains was monitored before each experiment.
(§4) 100 μl of Muller-Hinton broth was added to the wells of each plate; the test base was introduced into the first well at a concentration of 128 μg/ml in a volume of 100 μl and its concentration was adjusted to 0.25 μg/ml by consecutive two-fold dilution. […] Each preparation in the experiment was titrated three times. […] In addition, the purity of nutrient media and solvents was monitored. The plates were incubated in a thermostat at […] for 24 hours.
(§5) The growth of cultures was assessed visually, comparing the growth of microorganisms in the presence of test compounds with the growth of culture without them.

[2] = test system: Salmonella typhimurium TA100 (museum strain); details: inoculum 10^7 CFU/ml, gram-negative; for MIC: Salmonella enterica, TYPHIMURIUM, read-out: MIC, S. typhimurium
Experimental: as §1, §2, §3, §4, §5

[3] = test system: Bacillus subtilis 168 (museum strain); details: inoculum 10^7 CFU/ml, gram-positive; for MIC: Bacillus subtilis, read-out: MIC, B. subtilis
Experimental: as §1, §2, §3, §4, §5

[4] = test system: Pseudomonas aeruginosa ATCC 27853 (museum strain); details: inoculum 10^7 CFU/ml, gram-negative; for MIC: Pseudomonas aeruginosa, ATCC27853, read-out: MIC, P. aerugenosa
Experimental: as §1, §2, §3, §4, §5

[5] = test system: Staphylococcus aureus ATCC 29213 (museum strain); details: inoculum 10^7 CFU/ml, gram-positive; for MIC: Staphylococcus aureus, ATCC29213, read-out: MIC, S. aureus
Experimental: as §1, §2, §3, §4, §5

[6] = test system: Escherichia coli ATCC 25922 (museum strain); details: inoculum 10^7 CFU/ml, gram-negative; for MIC: Escherichia coli, ATCC25922, read-out: MIC, E. coli
Experimental: as §1, §2, §3, §4, §5

[7] = test system: Micrococcus luteus (clinical isolate); details: inoculum 10^7 CFU/ml, gram-positive; for MIC: Micrococcus luteus, read-out: MIC, M. luteus
Experimental: as §1, §2, §3, §4, §5

In the case of `COc1c(N2C[C@@H]3CCCN[C@@H]3C2)c(F)cc2c(=O)c(C(=O)O)cn(C3CC3)c12` [Moxifloxacin, moxifloxacin, reference compound], the MIC [1] is reported as 4 µg/mL (≈ 9.96 µM), the MIC [2] is reported as 0.5 µg/mL (≈ 1.25 µM) and the MIC [3] is reported as less than 2 µg/mL. It also gave an MIC [4] of 8 µg/mL (≈ 19.9 µM), an MIC [5] of 1 µg/mL (≈ 2.49 µM) and an MIC [6] of 2 µg/mL (≈ 4.98 µM). For the same compound, the MIC [7] was 4 µg/mL (≈ 9.96 µM).
In the case of `Cc1ncc(CN2CCN(c3cc4c(cc3F)c(=O)c(C(=O)O)cn4C3CC3)CC2)c2c1OC(C)OC2` (stereo not shown) [Compound I-6, 1-cyclopropyl-6-fluoro-7-(4-((2,8-dimethyl-4H-[1,3]dioxino-[4,5-c]pyridine-5-yl)methyl)piperazinyl)-4-oxo-1,4-dihydroquinolin-3-carboxylic acid], the “MIC, S. epidermidis” value [1] is reported as 8 µg/mL (≈ 15.7 µM), the “MIC, S. typhimurium” value [2] is reported as 4 µg/mL (≈ 7.87 µM) and the “MIC, B. subtilis” value [3] is reported as less than 2 µg/mL. For the same compound, the “MIC, P. aerugenosa” value [4] was greater than 64 µg/mL, the “MIC, S. aureus” value [5] was 8 µg/mL (≈ 15.7 µM) and the “MIC, E. coli” value [6] was greater than 64 µg/mL. The “MIC, M. luteus” value [7] was 8 µg/mL (≈ 15.7 µM).
`Cc1ncc(CSCCN2CCN(c3cc4c(cc3F)c(=O)c(C(=O)O)cn4C3CC3)CC2)c(CO)c1O` [Compound I-5, 1-cyclopropyl-6-fluoro-7-(4-(2-(((5-hydroxy-4-hydroxymethyl-6-methylpyridine-3-yl)methyl)sulfanyl)ethyl)piperazinyl)-4-oxo-1,4-dihydroquinolin-3-carboxylic acid] was tested, and the “MIC, S. epidermidis” value [1] was 8 µg/mL (≈ 14.7 µM), the “MIC, S. typhimurium” value [2] was 4 µg/mL (≈ 7.37 µM) and the “MIC, B. subtilis” value [3] was less than 2 µg/mL. The “MIC, P. aerugenosa” value [4] was 32 µg/mL (≈ 59 µM), the “MIC, S. aureus” value [5] was 8 µg/mL (≈ 14.7 µM) and the “MIC, E. coli” value [6] was 8 µg/mL (≈ 14.7 µM). For the same compound, the “MIC, M. luteus” value [7] was 8 µg/mL (≈ 14.7 µM).
In the case of `Cc1ncc(CN2CCN(c3cc4c(cc3F)c(=O)c(C(=O)O)cn4C3CC3)CC2)c2c1OC(C)(C)OC2` [Compound I-1, 1-cyclopropyl-6-fluoro-7-(4-((2,2,8-trimethyl-4H-[1,3]dioxino-[4,5-c]pyridine-5-yl)methyl)piperazinyl)-4-oxo-1,4-dihydroquinolin-3-carboxylic acid], the “MIC, S. epidermidis” value [1] is reported as 16 µg/mL (≈ 30.6 µM), the “MIC, S. typhimurium” value [2] is reported as 4 µg/mL (≈ 7.65 µM) and the “MIC, B. subtilis” value [3] is reported as less than 2 µg/mL. For the same compound, the “MIC, P. aerugenosa” value [4] was greater than 64 µg/mL, the “MIC, S. aureus” value [5] was 32 µg/mL (≈ 61.2 µM) and the “MIC, E. coli” value [6] was 64 µg/mL (≈ 122 µM). The “MIC, M. luteus” value [7] was 32 µg/mL (≈ 61.2 µM).
For `CCCCCCCCC1OCc2c(CN3CCN(c4cc5c(cc4F)c(=O)c(C(=O)O)cn5C4CC4)CC3)cnc(C)c2O1` (stereo not shown) [Compound I-8, 1-cyclopropyl-6-fluoro-7-(4-((8-methyl-2-octyl-4H-[1,3]dioxino-[4,5-c]pyridine-5-yl)methyl)piperazinyl)-4-oxo-1,4-dihydroquinolin-3-carboxylic acid], the “MIC, S. epidermidis” value [1] was 64 µg/mL (≈ 105 µM), the “MIC, S. typhimurium” value [2] was 4 µg/mL (≈ 6.59 µM) and the “MIC, B. subtilis” value [3] was less than 2 µg/mL. For the same compound, the “MIC, P. aerugenosa” value [4] was greater than 64 µg/mL, the “MIC, S. aureus” value [5] was 32 µg/mL (≈ 52.7 µM) and the “MIC, E. coli” value [6] was greater than 64 µg/mL. The “MIC, M. luteus” value [7] was 64 µg/mL (≈ 105 µM).
With `Cc1ncc(CN2CCN(c3cc4c(cc3F)c(=O)c(C(=O)O)cn4C3CC3)CC2)c2c1OCOC2` [Compound I-12, 1-cyclopropyl-6-fluoro-7-(4-((8-methyl-4H-[1,3]dioxino [4,5-c]pyridine-5-yl)methyl)piperazine-1-yl)-4-oxo-1,4-dihydroquinolin-3-carboxylic acid] the MIC [1] was 0.5 µg/mL (≈ 1.01 µM), the MIC [2] was 0.5 µg/mL (≈ 1.01 µM) and the MIC [3] was less than 2 µg/mL. It also gave an MIC [4] of 32 µg/mL (≈ 64.7 µM), an MIC [5] of 1 µg/mL (≈ 2.02 µM) and an MIC [6] of 8 µg/mL (≈ 16.2 µM). It also gave an MIC [7] of 16 µg/mL (≈ 32.4 µM).
For `Cc1nc(CN2CCN(c3cc4c(cc3F)c(=O)c(C(=O)O)cn4C3CC3)CC2)c(CO)c(CO)c1O` [Compound I-11, 1-cyclopropyl-6-fluoro-7-(4-((5-hydroxy-3,4-bis(hydroxymethyl)-6-methylpyridine-2-yl)methyl)piperazinyl)-4-oxo-1,4-dihydroquinolin-3-carboxylic acid], the “MIC, S. epidermidis” value [1] was 32 µg/mL (≈ 62.4 µM), the “MIC, S. typhimurium” value [2] was 4 µg/mL (≈ 7.8 µM) and the “MIC, B. subtilis” value [3] was less than 2 µg/mL. The “MIC, P. aerugenosa” value [4] was greater than 64 µg/mL, the “MIC, S. aureus” value [5] was 64 µg/mL (≈ 125 µM) and the “MIC, E. coli” value [6] was 64 µg/mL (≈ 125 µM). The “MIC, M. luteus” value [7] was 32 µg/mL (≈ 62.4 µM).
For `CCCC1OCc2c(CN3CCN(c4cc5c(cc4F)c(=O)c(C(=O)O)cn5C4CC4)CC3)cnc(C)c2O1` (stereo not shown) [Compound I-7, 1-cyclopropyl-6-fluoro-7-(4-((8-methyl-2-propyl-4H-[1,3]dioxino-[4,5-c]pyridine-5-yl)methyl)piperazinyl)-4-oxo-1,4-dihydroquinolin-3-carboxylic acid], the “MIC, S. epidermidis” value [1] was 64 µg/mL (≈ 119 µM), the “MIC, S. typhimurium” value [2] was 4 µg/mL (≈ 7.45 µM) and the “MIC, B. subtilis” value [3] was less than 2 µg/mL. The “MIC, P. aerugenosa” value [4] was greater than 64 µg/mL, the “MIC, S. aureus” value [5] was 64 µg/mL (≈ 119 µM) and the “MIC, E. coli” value [6] was greater than 64 µg/mL. The “MIC, M. luteus” value [7] was 64 µg/mL (≈ 119 µM).
`Cc1ncc(CSCCN2CCN(c3cc4c(cc3F)c(=O)c(C(=O)O)cn4C3CC3)CC2)c2c1OC(C)(C)OC2` [Compound I-4, 1-cyclopropyl-6-fluoro-7-(4-(2-(((2,2,8-trimethyl-4H-[1,3]dioxino-[4,5-c]pyridine-5-yl)methyl)sulfanyl)ethyl)piperazinyl)-4-oxo-1,4-dihydroquinolin-3-carboxylic acid] was tested, and the “MIC, S. epidermidis” value [1] was 32 µg/mL (≈ 54.9 µM), the “MIC, S. typhimurium” value [2] was 4 µg/mL (≈ 6.86 µM) and the “MIC, B. subtilis” value [3] was less than 2 µg/mL. For the same compound, the “MIC, P. aerugenosa” value [4] was greater than 64 µg/mL, the “MIC, S. aureus” value [5] was 16 µg/mL (≈ 27.5 µM) and the “MIC, E. coli” value [6] was 64 µg/mL (≈ 110 µM). For the same compound, the “MIC, M. luteus” value [7] was 8 µg/mL (≈ 13.7 µM).
`Cc1nc(CN2CCN(c3cc4c(cc3F)c(=O)c(C(=O)O)cn4C3CC3)CC2)c(CO)c2c1OC(C)(C)OC2` [Compound I-10, 1-cyclopropyl-6-fluoro-7-(4-((5-hydroxymethyl-2,2,8-trimethyl-4H-[1,3]dioxino [4,5-c]pyridine-6-yl)methyl)piperazinyl)-4-oxo-1,4-dihydroquinolin-3-carboxylic acid] was tested, and the “MIC, S. epidermidis” value [1] was 8 µg/mL (≈ 14.5 µM), the “MIC, S. typhimurium” value [2] was 4 µg/mL (≈ 7.24 µM) and the “MIC, B. subtilis” value [3] was less than 2 µg/mL. For the same compound, the “MIC, P. aerugenosa” value [4] was greater than 64 µg/mL, the “MIC, S. aureus” value [5] was 8 µg/mL (≈ 14.5 µM) and the “MIC, E. coli” value [6] was 64 µg/mL (≈ 116 µM). For the same compound, the “MIC, M. luteus” value [7] was 8 µg/mL (≈ 14.5 µM).
